{
  "source": "patent US20250318525A1",
  "about": "“COMPOSITIONS TO CONTROL THE RELEASE RATES OF CHEMICAL PESTICIDES” (priority 2020, published 2025)",
  "key": {"[1]": {"assay": "Release from dual active tablets, copper-endothall salt and Mg(triclopyr)2 or Ca(triclopyr)2 (Example 19)", "format": "physicochemical", "conditions": "tablets with Mg(triclopyr)2 or Ca(triclopyr)2, 1 L stirred deionized water, both formulations, FIG. 28", "description": "Formulations were prepared with 33 weight percent each of copper-endothall salt, Mg(triclopyr)2 or Ca(triclopyr)2 salt, and silt. Formulations were mixed using a blender and then pressed into 6 mm tablets (average weight of 0.082 g/tablet) using a desktop tablet press.\n• A. 0.5 g Endothall (Cu), 0.5 g triclopyr (Ca), 0.5 g silt • B. 0.5 g Endothall (Cu), 0.5 g triclopyr (Mg), 0.5 g silt\n(§1) The resulting tablets were immersed in 1 L of stirred deionized water (60 rpm). […] The copper endothall salt portion of the formulation releases rapidly within 24 hours for both formulations."}, "[2]": {"assay": "Release from dual active tablets, copper-endothall salt and Mg(2,4D)2 or Ca(2,4D)2 (Example 18)", "format": "physicochemical", "conditions": "tablets with Mg(2,4D)2 or Ca(2,4D)2, 1 L stirred deionized water, both formulations, FIG. 27", "description": "Formulations were mixed using a blender and then pressed into 6 mm tablets (average weight of 0.082 g/tablet) using a desktop tablet press. Exact Formulations: • A. 0.5 g Endothall (Cu), 0.5 g 2,4D (Ca), 0.5 g silt • B. 0.5 g Endothall (Cu), 0.5 g 2,4D (Mg), 0.5 g silt\nas §1"}, "[3]": {"assay": "Benzoic acid release from benzoic acid salt tablets (Example 21)", "format": "physicochemical", "conditions": "1 L stirred deionized water, room temperature, FIG. 30", "description": "Benzoic acid (BA) is a structural analogue to dicamba with its carboxylic acid in the benzyl position. BA salts were prepared by mixing a stoichiometric amount of metal hydroxide with benzoic acid in deionized water for a minimum of 12 hours. The resulting solids were filtered out of solution and dried in a dehydrator for 12 hours at 120° F. These were then blended with silt in a mortar and pestle and pressed on a desktop tablet press into 6 mm tablets (average tablet weight 0.093 g).\n• A. 0.1 g BA, 0.4 g silt • B. 0.1 g Mg(BA)2, 0.4 g silt • C. 0.1 g Ca(BA)2, 0.4 g silt • D. 0.1 g Cu(BA)2, 0.4 g silt • E. 0.1 g Na benzoate, 0.4 g silt\nThese tablets were immersed in 1 L, stirred (60 rpm), room temperature, deionized water with two tablets per jar. […] A trend can be expected, but not predicted. Based on this, a trend could also be expected when dicamba is paired with metal ions."}, "[4]": {"assay": "Terrestrial sand bed with 2,4D salts and modeled rain events (Example 24)", "format": "physicochemical", "conditions": "7×200 mL flushes of deionized water, FIG. 33", "description": "200 mL of sand was layered in a Buchner funnel with filter paper. 2,4D salts were blended with 5.0 g of sand, and layered atop the 200 mL sand bed and exposed to 7×200 mL flushes of deionized water. 2,4D concentration was measured in the flush water to study how the associated metal impacted how rapidly 2,4D was lost from the surface.\nIn a terrestrial application, 2,4D lost from the surface would no longer be available to treat the target plant."}, "[5]": {"assay": "2,4D release from tablets containing preformed 2,4D complexes (Examples 8, 10, 11)", "format": "physicochemical", "conditions": "20% 2,4D tablets in silt, 1 L deionized water, 20° C., 60 rpm, FIGS. 16, 18, 19", "description": "The resulting solids were filtered and resuspended in deionized water with stirring for 15 min., then filtered again. The solids were dried to constant mass in a food dehydrator 120° F.\nThe resulting tablets were immersed in 1 L of deionized water at 20° C. and stirred at 60 rpm for the designated time period."}, "physchem": {"assay": "physchem", "conditions": "water"}, "[6]": {"assay": "TFM release when paired with bases of increasing solubility", "format": "physicochemical", "excerpt": "If a weak base is paired with the TFM, the solubilization of TFM can be controlled by the basicity and/or the solubility of the weak base."}, "[7]": {"conditions": "as listed in FIG. 36"}},
  "note": "Read-outs that look alike come from different tables or passages of the source.",
  "data": [
    {"smiles": "O=C([O-])C1C2CCC(O2)C1C(=O)[O-].[Cu+2]", "note": "(stereo not drawn) [copper endothall salt]", "values": [
      {"measurement": "time for release of endothall portion", "setting": "[1]", "result": "≤ 24", "unit": "h"},
      {"measurement": "time for release of endothall portion", "setting": "[2]", "result": "≤ 24", "unit": "h"}
    ]},
    {"smiles": "O=C([O-])c1ccccc1.O=C([O-])c1ccccc1.[Ca+2]", "note": "[Ca(BA)2]", "values": [
      {"measurement": "benzoic acid release rate, comparison", "setting": "[3]", "result": "releases significantly faster than BA"}
    ]},
    {"smiles": "O=C([O-])COc1ccc(Cl)cc1Cl.O=C([O-])COc1ccc(Cl)cc1Cl.[Cu+2]", "note": "[Cu(2,4D)2]", "values": [
      {"measurement": "tolerance of 2,4D salt on sand bed to water flushes", "setting": "[4]", "result": "most tolerant to frequent exposure to rain or watering events"},
      {"measurement": "2,4D release rate, comparison", "setting": "[5]", "result": "the slowest of all"}
    ]},
    {"smiles": "O=C([O-])COc1ccc(Cl)cc1Cl.[Na+]", "note": "[Na(2,4D)]", "values": [
      {"measurement": "2,4D release rate, comparison", "setting": "[5]", "result": "releases the fastest"}
    ]},
    {"smiles": "O=C(O)COc1ccc(Cl)cc1Cl", "note": "[Ca(2,4D)2]", "values": [
      {"measurement": "2,4D release rate, comparison", "setting": "[5]; listed as premade calcium complex", "result": "not significantly slower"}
    ]},
    {"smiles": "O=C(O)COc1ccc(Cl)cc1Cl", "note": "[2,4D, 2,4-dichlorophenoxyacetic acid, reference compound]", "values": [
      {"measurement": "2,4D release rate, comparison", "setting": "[5]", "result": "releases significantly faster than the Ca(2,4D)2"},
      {"measurement": "solubility", "setting": "physchem", "result": 740, "unit": "µg/mL"}
    ]},
    {"smiles": "O=[N+]([O-])c1ccc(O)cc1C(F)(F)F", "note": "[TFM, 3-trifluoromethyl-4-nitrophenol]", "values": [
      {"measurement": "TFM release rate, order by paired base", "setting": "[6]", "result": "Mg(OH)2<Ca(OH)2<<<KOH"}
    ]},
    {"smiles": "O=C([O-])COc1ccc(Cl)cc1Cl.O=C([O-])COc1ccc(Cl)cc1Cl.[Fe+2]", "note": "[Fe(2,4D)2]", "values": [
      {"measurement": "2,4D release rate, comparison", "setting": "[5]", "result": "releases more slowly than 2,4D"},
      {"measurement": "solubility", "setting": "[7]", "result": 1860, "unit": "µg/mL"}
    ]}
  ]
}
